According to ChEMBL document CHEMBL5050844 (2019):

Legend:
[1] = Induction of anti-CD3 antibodies-stimulated human T cell activation at 1 uM assessed fold increase in IL-2 secretion measured by ELISA assay; type: functional, T cell line; further: reference of the scale not given here
[2] = Induction of anti-CD3/CD28 antibodies-stimulated human T cell activation at 1 uM assessed fold increase in CD25 expression measured by ELISA assay; type: functional, T cell line
[3] = Induction of anti-CD3/CD28 antibodies-stimulated human T cell activation at 0.3 uM assessed fold increase in CD25 expression measured by ELISA assay; type: functional, T cell line
[4] = Induction of anti-CD3 antibodies-stimulated human T cell activation at 1 uM assessed fold increase in CD25 expression measured by ELISA assay; type: functional, T cell line; further: reference of the scale not given here
[5] = Induction of anti-CD3/CD28 antibodies-stimulated human T cell activation at 0.3 uM assessed fold increase in IL-2 secretion measured by ELISA assay; type: functional, T cell line
[6] = Induction of anti-CD3/CD28 antibodies-stimulated human T cell activation at 1 uM assessed fold increase in IL-2 secretion measured by ELISA assay; type: functional, T cell line
[7] = target: E3 ubiquitin-protein ligase CBL-B (Homo sapiens, UniProt Q13191); experiment: Inhibition of N-terminal Avi-tagged human CBL-B (36 to 427 residues) incubated with 60 nM Src kinase for 1.5 hrs followed by incubation with fluorescently labeled UbcH5B-Ub for 1 hr and measured by TR-FRET assay; type: single protein
E3 ubiquitin-protein ligase CBL-B, sequence (Q13191 whole entry, the tested form may be a part): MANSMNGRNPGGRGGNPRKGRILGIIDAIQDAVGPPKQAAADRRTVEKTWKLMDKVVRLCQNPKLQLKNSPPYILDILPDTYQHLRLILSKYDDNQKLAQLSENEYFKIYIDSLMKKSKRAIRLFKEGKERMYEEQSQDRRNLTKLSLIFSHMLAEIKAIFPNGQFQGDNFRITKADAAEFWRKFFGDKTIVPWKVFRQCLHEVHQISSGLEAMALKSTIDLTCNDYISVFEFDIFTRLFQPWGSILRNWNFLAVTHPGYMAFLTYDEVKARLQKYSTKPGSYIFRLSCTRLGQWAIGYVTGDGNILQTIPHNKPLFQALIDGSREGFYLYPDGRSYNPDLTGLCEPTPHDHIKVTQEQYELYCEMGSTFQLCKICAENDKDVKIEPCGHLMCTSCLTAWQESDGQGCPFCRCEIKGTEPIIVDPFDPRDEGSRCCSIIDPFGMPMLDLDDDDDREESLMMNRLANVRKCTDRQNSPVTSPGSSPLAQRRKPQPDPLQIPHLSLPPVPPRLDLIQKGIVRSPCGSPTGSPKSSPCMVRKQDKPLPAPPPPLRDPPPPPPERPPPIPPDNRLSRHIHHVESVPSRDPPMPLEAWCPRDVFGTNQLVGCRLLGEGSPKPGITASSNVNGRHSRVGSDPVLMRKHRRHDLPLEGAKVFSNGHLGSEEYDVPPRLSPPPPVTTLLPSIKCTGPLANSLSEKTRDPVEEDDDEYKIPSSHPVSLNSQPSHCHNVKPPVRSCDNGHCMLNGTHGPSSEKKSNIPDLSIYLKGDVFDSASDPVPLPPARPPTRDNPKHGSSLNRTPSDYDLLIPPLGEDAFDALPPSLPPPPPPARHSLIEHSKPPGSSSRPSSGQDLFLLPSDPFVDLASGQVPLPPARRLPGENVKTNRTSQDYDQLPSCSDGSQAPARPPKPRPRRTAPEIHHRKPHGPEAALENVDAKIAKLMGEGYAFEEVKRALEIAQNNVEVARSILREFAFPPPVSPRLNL

Row | IC50 [7] [µM] | SMILES | fold change (FC) [1] | fold change (FC) [2] | fold change (FC) [3] | fold change (FC) [4] | fold change (FC) [5] | fold change (FC) [6] | fold change (FC) ([1]; 1 µM) | fold change (FC) ([2]; 1 µM) | fold change (FC) ([3]; 0.3 µM) | fold change (FC) ([4]; 1 µM)
1 | < 0.1 | Cc1cc(C(=O)Nc2cccc(C3([C@@H](F)c4nncn4C)COC3)c2)nc(C2CC2)n1 | >=0.201 | 1.31 | 1.01 | >=1.001 | 2.51 | >=7.5 | – | – | – | –
2 | < 0.1 | CN1CC2CCC1CN2c1cc2c(c(C(F)(F)F)c1)CN(c1cccc(C3(Cc4nncn4C)COC3)c1)C2=O (stereo unspecified) | >=0.201 | 1.31 | 1.01 | 0.801 | 2.51 | 5 | – | – | – | –
3 | < 0.1 | Cn1cnnc1CC1(c2cccc(NC(=O)c3csc(C(F)(F)F)n3)c2)COC1 | 0.051 | 1.01 | 1.01 | 0.601 | 1.01 | 1.01 | – | – | – | –
4 | < 0.1 | CN(C)Cc1cc(C(=O)Nc2cccc(C3(Cc4nncn4C)COC3)c2)nc(C2CC2)n1 | 0.101 | 1.31 | 1.31 | >=1.001 | 2.51 | >=7.5 | – | – | – | –
5 | < 0.1 | Cc1cc(C(=O)Nc2cccc(C3(Cc4nncn4C)CC(F)(F)C3)c2)nc(C2CC2)n1 | >=0.201 | 1.01 | 1.01 | >=1.001 | 5 | >=7.5 | – | – | – | –
6 | < 0.1 | Cn1cnnc1CC1(c2cccc(N3Cc4c(cc(CN5CCc6ccccc6C5)cc4C(F)(F)F)C3=O)c2)COC1 | >=0.201 | 1.31 | 1.01 | >=1.001 | 5 | >=7.5 | – | – | – | –
7 | < 0.1 | Cn1cnnc1CC1(c2cccc(N3Cc4c(cc(CN5CCC6(CC5)CC6)cc4C(F)(F)F)C3=O)c2)COC1 | >=0.201 | 1.51 | 1.51 | >=1.001 | >=7.5 | >=7.5 | – | – | – | –
8 | < 0.1 | Cn1cnnc1CC1(c2cccc(N3Cc4c(cc(CN5CC[C@@H](CO)C(F)(F)C5)cc4C(F)(F)F)C3=O)c2)COC1 | 0.101 | 1.31 | 1.31 | 0.801 | 2.51 | >=7.5 | – | – | – | –
9 | < 0.1 | Cn1cnnc1C(F)(F)[C@](C)(F)c1cccc(NC(=O)c2cc(CN3CC[C@H](F)C3)nc(C3CC3)n2)c1 | 0.051 | 1.01 | 1.01 | 0.801 | 2.51 | 5 | – | – | – | –
10 | < 0.1 | Cn1cnnc1CC1(c2cccc(NC(=O)c3cc(CN4CC[C@H](O)C4)nc(C4CC4)n3)c2)COC1 | 0.051 | 1.01 | 1.01 | 0.601 | 1.01 | 2.51 | – | – | – | –
11 | < 0.1 | Cn1cnnc1CC1(c2cccc(N3Cc4c(cc(OC(F)F)cc4C(F)(F)F)C3=O)c2)COC1 | 0.051 | 1.31 | 1.01 | 0.801 | 2.51 | 5 | – | – | – | –
12 | < 0.1 | CO[C@@H]1CCN(Cc2cc3c(c(C(F)(F)F)c2)CN(c2cccc(C4(Cc5nncn5C)COC4)c2)C3=O)C[C@@H]1F (relative stereo) | >=0.201 | 1.31 | 1.31 | >=1.001 | >=7.5 | >=7.5 | – | – | – | –

Continued, molecule first:

Row | SMILES | IC50 [7] [µM] | fold change (FC) [1] | fold change (FC) [2] | fold change (FC) [3] | fold change (FC) [4] | fold change (FC) [5] | fold change (FC) [6] | fold change (FC) ([1]; 1 µM) | fold change (FC) ([2]; 1 µM) | fold change (FC) ([3]; 0.3 µM) | fold change (FC) ([4]; 1 µM)
13 | Cn1cnnc1CC1(c2cccc(N3Cc4c(cc(CN5CC[C@H]6C[C@H]65)cc4C(F)(F)F)C3=O)c2)COC1 | < 0.1 | >=0.201 | 1.51 | 1.51 | >=1.001 | >=7.5 | >=7.5 | – | – | – | –
14 | C[C@@H]1CCN(Cc2cc3c(c(C(F)(F)F)c2)CN(c2cccc(C4(Cc5nncn5C)COC4)c2)C3=O)C[C@H]1F (relative stereo) | < 0.1 | >=0.201 | 1.51 | 1.31 | >=1.001 | >=7.5 | >=7.5 | – | – | – | –
15 | CCOc1cc(N2Cc3c(cc([C@@H](C)N4CC[C@H](F)C4)cc3C(F)(F)F)C2=O)cc(C2(Cc3nncn3C)COC2)c1 | < 0.1 | >=0.201 | 1.51 | 1.31 | >=1.001 | >=7.5 | >=7.5 | – | – | – | –
16 | Cn1cnnc1CC1(c2cccc(N3Cc4c(cc(CN5CC[C@H](F)C5)nc4C4CC4)C3=O)c2)COC1 | < 0.1 | 0.051 | 1.01 | 1.01 | 0.801 | 2.51 | 5 | – | – | – | –
17 | C[C@H](c1cc2c(c(C(F)(F)F)c1)CN(c1cccc(C3(Cc4nncn4C)COC3)c1)C2=O)N1CC2CC2C1 (stereo partly specified) | < 0.1 | >=0.201 | 1.31 | 1.31 | >=1.001 | >=7.5 | >=7.5 | – | – | – | –
18 | Cn1cnnc1CC1(c2cccc(N3Cc4c(cc(CN5CCS(=O)(=O)CC5)cc4C(F)(F)F)C3=O)c2)COC1 | < 0.1 | 0.101 | 1.01 | 1.01 | >=1.001 | 2.51 | 2.51 | – | – | – | –
19 | Cn1cnnc1[C@@H](F)C1(c2cccc(N3Cc4c(cc(CN5C6CCCC5CC6)cc4C(F)(F)F)C3=O)c2)COC1 (stereo in doubt; 671a) | < 0.1 | – | – | – | – | 2.51 | 5 | >=0.201 | >=1.76 | 1.51 | 0.601
20 | Cc1cc(C(=O)Nc2cccc([C@@]3(Cc4nncn4C)CCOC3)c2)nc(C2CC2)n1 | < 0.1 | 0.101 | 1.01 | 1.01 | 0.801 | 2.51 | 2.51 | – | – | – | –
21 | Cn1cnnc1CC1(c2cccc(N3Cc4c(cc(CN5C6CCC5CC6)cc4C(F)(F)F)C3=O)c2)COC1 | < 0.1 | >=0.201 | 1.51 | 1.51 | >=1.001 | >=7.5 | >=7.5 | – | – | – | –
22 | Cn1cnnc1CC1(c2cccc(N3Cc4c(cc(CN5CCCC6CC65)cc4C(F)(F)F)C3=O)c2)COC1 (stereo unspecified) | < 0.1 | >=0.201 | 1.01 | 1.01 | >=1.001 | >=7.5 | >=7.5 | – | – | – | –
23 | Cc1cc(C(=O)Nc2cccc(C3([C@H](F)c4nncn4C)COC3)c2)nc(C2CC2)n1 | < 0.1 | 0.151 | 1.01 | 1.01 | >=1.001 | 2.51 | 5 | – | – | – | –
24 | CC(c1cc2c(c(C3CC3)n1)CN(c1cccc(C3(Cc4nncn4C)COC3)c1)C2=O)N1CCCC1 (stereo unspecified) | < 0.1 | <=0.05 | 1.01 | 1.01 | 0.601 | 1.01 | 2.51 | – | – | – | –
25 | Cn1cnnc1CC1(c2cccc(NC(=O)c3cc(CN4C[C@H]5C[C@H]5C4)cc(C4CC4)n3)c2)COC1 | < 0.1 | >=0.201 | 1.31 | 1.31 | >=1.001 | >=7.5 | >=7.5 | – | – | – | –
26 | CC(c1cc2c(c(C3CC3)n1)CN(c1cccc(C3(Cc4nncn4C)COC3)c1)C2=O)N1CCC2(CC2)C1 (stereo unspecified) | < 0.1 | 0.051 | 1.01 | 1.01 | 0.801 | 2.51 | 5 | – | – | – | –
27 | Cn1cnnc1C[C@]1(c2cccc(N3Cc4c(cc(CN5CCC6(CC6)C5)cc4C(F)(F)F)C3=O)c2)CCOC1 | < 0.1 | >=0.201 | 1.01 | 1.01 | >=1.001 | >=7.5 | >=7.5 | – | – | – | –
28 | C[C@H]1CN(C)CCN1c1cc2c(c(C(F)(F)F)c1)CN(c1cccc(C3(Cc4nncn4C)COC3)c1)C2=O | < 0.1 | >=0.201 | 1.31 | 1.01 | >=1.001 | 5 | >=7.5 | – | – | – | –
